Experimental data: patent publication US20210403455A1 (priority 2018, published 2021)

System: rice blast
Assay type: cell-based
Details: acetone solution at 500 ppm, 1000 μl dropped on oatmeal medium; 8 mm rice blast disc; 25° C. for five days; fungal filament elongation vs acetone-only treatment

COc1nc(-c2ccccn2)nc(F)c1C(F)(F)F [Example 3, 6-fluoro-4-methoxy-2-(2-pyridyl)-5-trifluoromethylpyrimidine]
Preventive value: 80
